# Laboratory results as given in ChEMBL document CHEMBL1201862, “PubChem BioAssay data set” (2004).
#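 48-hour exposure; five concentrations; linearly interpolated endpoints. GI50 = concentration required for 50% inhibition of growth.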 Calls of active or inactive are those of the source. Rule as the data show it: active = GI50 up to about 1.1 µM and inactive = higher.
# Assays:
# Assay in all cases: DTP human tumour cell line panel, 48 h
# [1] = system: IGROV-1
# [2] = system: SK-MEL-5
# [3] = system: NCI-H226
# [4] = system: HOP-92
# [5] = system: TK-10
# [6] = system: RXF 393
# [7] = system: SNB-75
# [8] = system: A549
# [9] = system: M14
# [10] = system: HCT-116
# [11] = system: RPMI-8226
# [12] = system: NCI/ADR-RES
# [13] = system: U-251
# [14] = system: T47D
# [15] = system: 786-0
# [16] = system: UO-31
# [17] = system: HCC 2998
# [18] = system: CAKI-1
# [19] = system: OVCAR-4
# [20] = system: Hs-578T
SMILES,GI50 [1],GI50 [2],GI50 [3],GI50 [4],GI50 [5],GI50 [6],GI50 [7],GI50 [8],GI50 [9],GI50 [10],GI50 [11],GI50 [12],GI50 [13],GI50 [14],GI50 [15],GI50 [16],GI50 [17],GI50 [18],GI50 [19],GI50 [20]
CN1C(=O)[C@@]2(C=CC3(CC2)OCCO3)c2ccccc21,0.48 µM (active),> 50 µM (inactive),> 50 µM (inactive),> 50 µM (inactive),> 50 µM (inactive),> 50 µM (inactive),> 25.9 µM (inactive),> 50 µM (inactive),> 50 µM (inactive),> 50 µM (inactive),> 50 µM (inactive),> 50 µM (inactive),> 50 µM (inactive),35 µM (inactive),> 50 µM (inactive),> 50 µM (inactive),> 50 µM (inactive),> 50 µM (inactive),> 50 µM (inactive),–
C=C(OC1C(C)=C2C(C1OC(=O)CCCCCCC)C(C)(OC(C)=O)CC(OC(=O)CCC)C1(O)C2OC(=O)C1(C)O)/C(C)=C/C (stereo not given),0.0125 µM (active),0.0125 µM (active),0.0641 µM (active),0.0125 µM (active),–,0.0125 µM (active),0.0125 µM (active),0.0125 µM (active),< 0.0001 µM (active),–,0.0125 µM (active),0.478 µM (active),0.0125 µM (active),0.000135 µM (active),< 0.0001 µM (active),0.115 µM (active),0.0125 µM (active),0.0125 µM (active),0.0125 µM (active),–
COc1cc2c(cc1OCCCOc1cc(-c3ccc(F)cc3)nc(C)n1)N=C[C@@H]1CCCN1C2=O,19.2 µM (inactive),15.9 µM (inactive),15.2 µM (inactive),27.4 µM (inactive),18.1 µM (inactive),20.2 µM (inactive),19.1 µM (inactive),18.2 µM (inactive),15.5 µM (inactive),16.9 µM (inactive),26.1 µM (inactive),–,14.8 µM (inactive),25.8 µM (inactive),16.7 µM (inactive),17.7 µM (inactive),> 10 µM (inactive),17.5 µM (inactive),33.5 µM (inactive),24.7 µM (inactive)
Cn1c(=O)c2c(nc(-n3nc(-c4ccc(Cl)cc4)cc3N)n2C)n(C)c1=O,> 100 µM (inactive),6.37 µM (inactive),55.2 µM (inactive),> 100 µM (inactive),> 100 µM (inactive),> 100 µM (inactive),–,> 100 µM (inactive),> 100 µM (inactive),19.1 µM (inactive),69.7 µM (inactive),39.6 µM (inactive),> 100 µM (inactive),–,6.9 µM (inactive),> 100 µM (inactive),> 100 µM (inactive),> 100 µM (inactive),5.6 µM (inactive),22.4 µM (inactive)
CCOC(=O)Nc1[nH]cc(-c2ccccc2)c1C#N,> 100 µM (inactive),> 100 µM (inactive),> 100 µM (inactive),–,> 100 µM (inactive),–,> 100 µM (inactive),> 100 µM (inactive),> 100 µM (inactive),> 100 µM (inactive),> 100 µM (inactive),> 100 µM (inactive),> 100 µM (inactive),–,> 100 µM (inactive),> 100 µM (inactive),–,–,> 100 µM (inactive),> 100 µM (inactive)
Cc1cccc2c(=O)c3cccc([C@@H](C)C(=O)O)c3oc12,> 100 µM (inactive),> 100 µM (inactive),> 100 µM (inactive),> 100 µM (inactive),> 100 µM (inactive),–,–,> 100 µM (inactive),> 100 µM (inactive),> 100 µM (inactive),> 100 µM (inactive),> 100 µM (inactive),> 100 µM (inactive),> 100 µM (inactive),> 100 µM (inactive),> 100 µM (inactive),> 100 µM (inactive),> 100 µM (inactive),> 100 µM (inactive),> 100 µM (inactive)
COc1ccc(C2c3cc4c(cc3OC(NNS(=O)(=O)c3ccc(C)cc3)C2C)OCO4)cc1 (stereo not given),57.1 µM (inactive),69.5 µM (inactive),> 100 µM (inactive),21.1 µM (inactive),> 100 µM (inactive),38.6 µM (inactive),37.4 µM (inactive),29.3 µM (inactive),> 100 µM (inactive),45.9 µM (inactive),12.5 µM (inactive),–,83.4 µM (inactive),54.2 µM (inactive),50.1 µM (inactive),31.2 µM (inactive),> 100 µM (inactive),65.9 µM (inactive),–,27.7 µM (inactive)
O=C(O)c1ccccc1/C=C1\Cc2cc3c(cc2C1=O)CCC3,23.6 µM (inactive),18.1 µM (inactive),24 µM (inactive),–,17.8 µM (inactive),21.3 µM (inactive),3.57 µM (inactive),30.1 µM (inactive),23.5 µM (inactive),27.9 µM (inactive),21.1 µM (inactive),17.3 µM (inactive),30.1 µM (inactive),9.23 µM (inactive),29 µM (inactive),33.9 µM (inactive),27.6 µM (inactive),–,28.1 µM (inactive),–
CC(=O)N1CCOC12N=NC(C)(C)O2 (stereo not given),> 100 µM (inactive),> 100 µM (inactive),–,> 100 µM (inactive),> 100 µM (inactive),–,> 100 µM (inactive),> 100 µM (inactive),> 100 µM (inactive),> 100 µM (inactive),> 100 µM (inactive),> 100 µM (inactive),> 100 µM (inactive),> 100 µM (inactive),> 100 µM (inactive),> 100 µM (inactive),> 100 µM (inactive),> 100 µM (inactive),> 100 µM (inactive),> 100 µM (inactive)
O=C(Cc1cccs1)N[C@@H]1C(=O)N2C(C(=O)OC(c3ccccc3)c3ccccc3)=C(CO)CS[C@H]12,29.9 µM (inactive),> 100 µM (inactive),0.0283 µM (active),> 100 µM (inactive),> 100 µM (inactive),> 100 µM (inactive),–,> 100 µM (inactive),> 100 µM (inactive),> 100 µM (inactive),96.2 µM (inactive),96.6 µM (inactive),> 100 µM (inactive),–,> 100 µM (inactive),17.9 µM (inactive),52.8 µM (inactive),> 100 µM (inactive),74.3 µM (inactive),–
COc1ccc2c(c1)CC[C@@H]1C2CC[C@]2(C)C(=O)N(CCN(C)C)C(=O)CC12 (stereo not given in full),> 100 µM (inactive),83.9 µM (inactive),> 100 µM (inactive),> 100 µM (inactive),> 100 µM (inactive),> 100 µM (inactive),> 100 µM (inactive),> 100 µM (inactive),> 100 µM (inactive),> 100 µM (inactive),–,–,> 100 µM (inactive),> 100 µM (inactive),> 100 µM (inactive),> 100 µM (inactive),> 100 µM (inactive),> 100 µM (inactive),> 100 µM (inactive),> 100 µM (inactive)
N#CCCC1(CCC#N)CCCCCCCCC(CCC#N)(CCC#N)C(=O)C1=O,–,–,> 100 µM (inactive),> 100 µM (inactive),> 100 µM (inactive),–,63.8 µM (inactive),> 100 µM (inactive),> 100 µM (inactive),> 100 µM (inactive),–,> 100 µM (inactive),> 100 µM (inactive),36.6 µM (inactive),> 100 µM (inactive),–,> 100 µM (inactive),> 100 µM (inactive),> 100 µM (inactive),91 µM (inactive)
Cc1cc(-c2ccc[nH]2)on1,> 100 µM (inactive),> 100 µM (inactive),–,> 100 µM (inactive),> 100 µM (inactive),> 100 µM (inactive),> 100 µM (inactive),> 100 µM (inactive),> 100 µM (inactive),> 100 µM (inactive),> 100 µM (inactive),> 100 µM (inactive),> 100 µM (inactive),–,> 100 µM (inactive),> 100 µM (inactive),> 100 µM (inactive),> 100 µM (inactive),> 100 µM (inactive),> 100 µM (inactive)
COC(=O)C1(C)C=CC(=O)C2(C)C1C(O)C1OC3CC(c4ccoc4)C(C)=C3C1(C)C2CC(=O)O (stereo not given),> 100 µM (inactive),> 100 µM (inactive),–,> 100 µM (inactive),> 100 µM (inactive),–,> 100 µM (inactive),> 100 µM (inactive),> 100 µM (inactive),> 100 µM (inactive),> 100 µM (inactive),> 100 µM (inactive),> 100 µM (inactive),> 100 µM (inactive),> 100 µM (inactive),> 100 µM (inactive),> 100 µM (inactive),> 100 µM (inactive),> 100 µM (inactive),> 100 µM (inactive)
O=c1[nH]c2c(S)nc(O)nc2n1-c1ccccc1,> 100 µM (inactive),> 100 µM (inactive),> 100 µM (inactive),> 100 µM (inactive),> 100 µM (inactive),> 100 µM (inactive),–,> 100 µM (inactive),> 100 µM (inactive),> 100 µM (inactive),–,> 100 µM (inactive),> 100 µM (inactive),–,> 100 µM (inactive),> 100 µM (inactive),> 100 µM (inactive),> 100 µM (inactive),> 100 µM (inactive),> 100 µM (inactive)
c1ccc2/c3[nH]/c(c2c1)=N\c1ccc(cc1)-c1nc2cc(ccc2o1)/N=c1/[nH]/c(c2ccccc12)=N/c1ccc2nc(oc2c1)-c1ccc(cc1)\N=3,> 100 µM (inactive),> 100 µM (inactive),–,–,–,> 100 µM (inactive),–,–,> 100 µM (inactive),> 100 µM (inactive),–,32.1 µM (inactive),> 100 µM (inactive),–,> 100 µM (inactive),> 100 µM (inactive),6.9 µM (inactive),> 100 µM (inactive),> 100 µM (inactive),> 100 µM (inactive)
